Experimental data published in patent US20050090471A1, “Inhibitors of cyclin-dependent kinases, compositions and uses related thereto” (GPC Biotech, Inc, priority 2001, published 2005).

Experiments:
[1] = tested on: HCT-116 cells; experiment: BrdU incorporation into DNA (flow cytometry); format: cell-based, human; design: unit not given here; conditions: inhibition of BrdU incorporation, unit not given; for BrdU 24: analysis at 24 hours; for BrdU 48: analysis at 48 hours; for BrdU 72: analysis at 72 hours
Procedure: This method measured the percentage of cells that incorporated the nucleotide analog, BrdU, into newly synthesized DNA as cells progressed through the S phase of the cell cycle. The inhibition of BrdU incorporation was used as a measure of a Cdlc inhibitor's effect on S phase progression and DNA replication.
3 sets of HCT-116 cells (100,000 cells/set) were plated in T25 flasks and incubated with a test compound as above. Analysis was done at 24, 48, and 72 hours. BrdU was added to each T-25 flask from a stock of 10 mg/ml to a final concentration of 10 μM and the cells were incubated for an additional 16-18 hours at 37° C. The cells were then prepared for flow cytometric analysis according to manufacturer's protocol (BrdU Flow kit, BD-Pharmingen catalogue # 2354KK) as follows:
Cells were harvested (adherent and floating) from the T25 flasks directly into Falcon 12×75 flow cytometric tubes as above followed by fixation and permeabilization with the addition of 100 μl Cytofix/Cytoperm buffer (30 minutes, room temperature). The cells were then washed with 1 ml of Perm Wash buffer and the cell pellets were resuspended in 100 μl Cytoperm Plus buffer and incubated on ice for 10 minutes. The cells were then washed again with 1 ml of Perm Wash buffer and the fixation was repeated in 100 μl of Cytofix/Cyto Perm buffer for 10 minutes at room temperature. The cells were then washed with 1 ml of Perm Wash buffer. The cells were next treated for one hour at 37° C. with 100 μl DNase to expose incorporated BrdU followed by another wash step with 1 ml of Perm Wash buffer. […] Cells were protected from light and incubated at room temperature for 20-30 minutes. Following the incubation, the cells were washed with 1 ml of Perrn Wash buffer, resuspended in 300 μl of 2% FBS in PBS, and analyzed on the flow cytometer.

[2] = tested on: NCI panel of 60 cell lines; experiment: NCI panel of human tumor cell lines (SRB assay), MG-MID; format: cell-based; conditions: 48 hours incubation with compound
Description: The evaluation of compounds at the National Cancer Institute in their panel of 60 cell lines provides a wealth of information regarding efficacy in a wide range of tumor types and genetic backgrounds. Included within this panel are cell lines derived from leukemia, melanoma and cancers of the lung, colon, brain, ovary, breast, prostate and kidney. Use of this panel provides a measure of the efficacy of compounds in cells with alterations in many genes that are associated with neoplastic transformation including p53 and Her2/Neu as well as those involved in metabolism and those which confer multi-drug resistance. The data generated in these cell lines with the protocol described below can be used to evaluate the activity of compounds.
Cells were grown in RPMI-1640 10% FCS and plated in 96 well micro-titer plates at densities ranging from 5,000 to 40,000 cells/well. The plates were incubated for 24 hours at 37° C., 5% CO2 for 24 hours. Media containing twice the desired final concentration of the compound (5 doses spanning 4 logs) was prepared and 100 μl was added to each well containing 100 μl media plus cells to yield the desired final concentration. The plates were then incubated for an additional 48 hours.
The effect of the compound on cellular viability was determined with the Sulforhodamine B (SRB) assay which measures total protein. Cells were fixed with cold TCA to a fmal concentration of 10% and incubated at 4° C. for 60 minutes. The supernatant was discarded and the plates were washed five times with water and air-dried. SRB solution at […] in 1% acetic acid was added to each well and the plates were incubated for 10 minutes at room temperature. The plates were washed five times with 1% acetic acid and air-dried. The bound stain was solubilized with 10 mM trizma base and the absorbance was read on a plate reader at […].

[3] = tested on: HCT-116; experiment: Calcein AM viability assay, HCT-116; format: cell-based, human; conditions: 72-hours incubation, plus 1 mg/ml alpha acidic glycoprotein and 45 mg/ml human serum albumin, read-out: HCT-116 IC50 protein adjusted
Procedure: The potency of Cdk inhibitors, as measured by loss of cellular viability, was determined with the Calcein AM assay (Molecular Probes). Calcein AM is a substrate of intracellular esterases, which is cleaved only in viable cells to generate a fluorescent product that can be quantified with a fluorescent plate reader. The fluorescent signal is proportional to the number of viable cells, and thus loss of signal in response to the exposure of cells to Cdk inhibitors correlates with a loss of viability. This assay distinguishes cell cycle arrest from loss of viability and is thus well suited for the evaluation of Cdk inhibitors.
Cellular IC50's were determined in the human colorectal carcinoma cell line, HCT-116, and the normal human fibroblast, IMR90. Protein adjusted IC50's were also determined in HCT-116. Results are presented in Table 3 below (HCT-116 (viability/protein adjusted) and IMR-90).
HCT-116 or IMR90 cells were recovered from sub-confluent plates by trypsinization and 1,000 or 4,000 cells, respectively, were plated in 24-well dishes and incubated overnight at 37° C., 5% CO2. HCT-116 cells were cultured in RPMI-1640, 10% FCS, and IMR90 cells were cultured in Minimum Essential Medium-alpha, 10% FCS. After overnight incubation to allow.adlierence, the media was aspirated from each well and replaced with media containing a test compound at a concentration from 0 to 250 nM, spanning a total of 7 doses. The plates were returned to the incubator and cultured for an additional 3 days. […] After 72-hours incubation with the test compound, the cells were washed twice with 1×PBS, talking special care to remove all residual buffer.
A 5 μM Calcein AM. solution was prepared by dissolving a 50 μg aliquot of Calcein (Molecular Probes catalog # C3100) in 50 μl DMSO. After the Calcein had completely dissolved (10 minutes at room temperature), it was diluted into 10 ml PBS. Calcein/PBS (0.5 ml) was added to each well. The plates were incubated for 75 minutes at 37° C. (protected from light) and the fluorescent signal was read on a fluorescent plate reader (excitation 485/20 and emission 530/25).

[4] = tested on: HCT-116 cells; experiment: Clonogenic survival assay with HCT-116 cells; format: cell-based; conditions: Homo sapiens, 24 h exposure, read-out: HCT-116 IC50 clonogenic 24 h
Procedure: This assay was used to determine the concentration of a compound that results irreversible loss of viability after a specified period of exposure.
Media (RPMI-1640, 10% FCS, pen/strep) was pre-warnied to 37° C. in a water bath. Cells were incubated and grown at 37° C., 5% CO2. Cells were recovered by trypsinization from sub-confluent plates and counted using a hemocytometer. 1×10^4 cells were plated in 25 mls of media in a 15 cm tissue culture dish. 14 plates were set up for each test compound, and were incubated overnight at 37° C. The compound was diluted into media at 7 concentrations and the media on the cells was replaced with that containing the test compound. Two plates were set up for each concentration of the compound to be tested, as well as two control plates without compound. […] Colonies were stained with crystal violet solution (0.4% crystal violet, 20 % ethanol) for 5 minutes, washed twice with distilled water, and counted.

SMILES	BrdU 24 [1]	BrdU 48 [1]	BrdU 72 [1]	NCI panel MG-MID [2] [µM]	IC50 [3] [µM]	IC50 [4] [µM]
CC(C)c1nn(-c2c(Cl)cccc2Cl)c2nc(Cc3ccc(O)c(CN4CCN(C(C)C)CC4)c3)[nH]c(=O)c12.Cl.Cl [Compound C]	<0.1	<0.1	<1	<0.1	–	–
Cl.Cl.Cl.O=C(Nc1cccc2c1C(=O)c1c-2n[nH]c1-c1ccc(OCCN2CCCC2)cc1)NN1CCOCC1 [Compound I]	<0.01	<0.1	<0.1	<0.1	< 1	–
CC(C)N1CCN(CCOc2ccc(-c3[nH]nc4c3C(=O)c3c(NC(=O)NN5CCOCC5)cccc3-4)cc2)CC1.Cl.Cl.Cl [E]	<0.01	<0.1	<0.1	<0.1	< 1	–
CN1CCN(NC(=O)Nc2cccc3c2C(=O)c2c-3n[nH]c2-c2ccc(OCCN3CCCC3)cc2)CC1.Cl.Cl.Cl [F]	–	<0.1	<1	<0.1	–	–
CCCN(CCOc1ccc(-c2[nH]nc3c2C(=O)c2c(NC(=O)NN4CCOCC4)cccc2-3)cc1)CC1CC1.Cl.Cl.Cl [G]	<0.01	<0.1	<0.1	<0.1	< 1	–
Cl.Cl.Cl.O=C(Nc1cccc2c1C(=O)c1c-2n[nH]c1-c1ccc(OCCN(CCO)CCO)cc1)NN1CCOCC1 [H]	<1	<1	<1	<0.1	–	–
CC(C)N1CCN(Cc2cc(-c3[nH]nc4c3C(=O)c3c(NC(=O)NN5CCOCC5)cccc3-4)ccc2O)CC1.Cl.Cl.Cl.Cl [K]	<0.1	<0.1	<0.1	<0.1	< 1	< 1
CN1CCN(NC(=O)Nc2cccc3c2C(=O)c2c-3n[nH]c2-c2ccc(OCCN3CCOCC3)cc2)CC1.Cl.Cl [Q]	<0.1	<0.1	<0.1	<0.1	< 1	–
